Experiments:
NIH/3T3 cells = assay: cytotoxicity (drug-exposure viability) assay, CCK-8; type: cell-based, mouse; details: for IC50: Mus musculus, NIH3T3, NIH/3T3, 24 h exposure, CCK-8, read-out: IC50 on cell line NIH/3T3
Experimental: (§1) Each medium was supplemented with 10% fetal bovine serum, 0.5% penicillin/streptomycin (Gibco, Life Technologies, USA), and an additional 1% glutamine. The medium was changed every 3–4 days and incubated until approximately 80% confluent. The cells were free from mycoplasma contamination after being checked by staining with DAPI (Sigma-Aldrich, USA). The detachment of cells from the culture flask was done using TrypLE™ Express (Gibco, Life Technologies, USA) after washing two times with Dulbecco's phosphate-buffered saline (DPBS). Subsequently, the counting of viable cells was carried out using a Neubauer improved C-Chip (NanoEntek Inc., Korea) after staining with 0.4% trypan blue solution. The drug-exposure viability assay was performed in accordance with the recommendation of the Cell Counting Kit-8 (CCK-8, Dojindo, Japan). Briefly, the assay was carried out using a 96-well plate at 37 °C in a humidified incubator with 5% CO2. One hundred microliters of cells at a density of 5 × 10^4 cells/ml was seeded per well and allowed to attach to the plate for 24 h. […] The exposure of drugs was carried out for 24 h, followed by the addition of 10 μl of CCK-8. The plate was further incubated for 3 h, and the absorbance was measured at 450 nm using a microplate reader.

T. equi (USDA strain) = assay: in vitro multiplication inhibition assay (SYBR Green I fluorescence, 96 h), single drugs and two-drug combinations; type: cell-based, Theileria equi; details: for IC50: Theileria equi, T. equi, 96 h, triplicate, mean ± SD, read-out: IC50 on in vitro culture of parasites; for Selectivity index MDBK: ratio IC50 MDBK to IC50 T. equi; for Selectivity index NIH/3T3: ratio IC50 NIH/3T3 to IC50 T. equi
Experimental: (§2) Babesia parasite cultures were maintained using a microaerophilic stationary-phase culture system ([Levy and Ristic, 1980]; [Avarzed et al., 1997]; [Igarashi et al., 1998]). Briefly, bovine Babesia parasites were grown in bovine red blood cells (RBC) in the specific complete medium for each species. The medium for B. bovis (Texas strain) contained GIT medium supplemented with 10% bovine serum, while the medium for B. bigemina (Argentina strain) and B. divergens (Germany strain) was Medium 199 and RPMI 1640 medium, respectively, supplemented with 40% bovine serum ([Rizk et al., 2016]). B. caballi (USDA strain) was grown using equine RBC in GIT medium supplemented with 10% equine serum. T. equi (USDA strain) was grown in equine RBC in M199 medium supplemented with 40% equine serum and hypoxanthine (MP Biomedicals, USA) at a final concentration of 13.6 μg/ml. All of the media included 60 U/ml penicillin G, 60 μg/ml streptomycin, and 0.15 μg/ml amphotericin B (Sigma-Aldrich, USA). The cultures were incubated at 37 °C in a humidified chamber with an atmosphere of 5% CO2, 5% O2, and 90% N2.
(§3) The assays were conducted in accordance with the protocol described previously with modification ([Guswanto et al., 2014]). Briefly, the cultures of B. bovis, B. bigemina, B. divergens, B. caballi, and T. equi with a parasitemia of 8%, 3%, 10%, 4%, and 9%, respectively, were harvested and adjusted to 1% parasitemia with fresh RBC before the inhibition assay. The 60 inner wells of a 96-well plate were used in the assay, while the peripheral wells were filled with sterile distillate water to reduce evaporation during incubation. To each well in triplicate, 2.5 μl of infected RBC (5 μl for B. divergens, B. caballi, and T. equi) was added and mixed with a culture medium containing the drug to a total volume of 100 μl. The stock solution of 17-DMAG, DA, and AV was dissolved in a culture medium at various concentrations using two-fold dilution. A culture medium containing DMSO at a final concentration of 0.2% was added to the well with infected RBC as a positive control and to the well with uninfected RBC as a negative control. Furthermore, a drug combination assay was conducted in parallel with the single drug assay at the constant ratio in accordance with the Chou–Talalay method ([Chou, 2006]). In the same plate with a single drug inhibition assay, a two-drug combination (DA+17-DMAG, DA + AV, and 17-DMAG + AV) at concentrations of 0.25 x IC50, 0.5 x IC50, IC50, 2 x IC50, and 4 x IC50 was added to the well containing infected RBC in triplicate. The plate was incubated in a humidified incubator with 5% CO2, 5% O2, and 90% N2. After 96 h, 100 μl of a lysis buffer containing SYBR Green I was added to each well. The plate was wrapped with aluminum foil to avoid direct light exposure and incubated at room temperature. After incubation for 6 h, fluorescence values were measured using a fluorescence spectrophotometer (Fluoroskan Ascent, Thermo Fisher Scientific, USA) with the excitation and emission wavelength at 485 nm and 518 nm, respectively. The fluorescence data were subtracted from the negative control and used to calculate the IC50.
(§4) The IC50 of 17-DMAG, DA, and AV was calculated from the percentage of inhibition on the in vitro multiplication of all tested species using non-linear regression (curve fit), available in GraphPad Prism (GraphPad Software Inc., USA). Combination index (CI) values for the drug combination were calculated using CompuSyn software ([Chou, 2006]). Since the chemotherapy effect is preferable at the highest inhibition, the degree of synergism was determined as the weighted average of CI values using a formula ((1 x IC50) + (2 x IC75) + (3 x IC90) + (4 x IC95))/10 ([Chou, 2006]). The differences among groups regarding the parasitemia, hematology profiles, and body weight in the B. microti–infected mouse model were analyzed using Student's t-test, available in GraphPad Prism software.

MDBK cells = assay: cytotoxicity (drug-exposure viability) assay, CCK-8; type: cell-based, bovine; details: for IC50: Bos taurus, MDBK, 24 h exposure, CCK-8, read-out: IC50 on cell line MDBK
Experimental: as §1

[1] = test system: B. divergens (Germany strain); assay: in vitro multiplication inhibition assay (SYBR Green I fluorescence, 96 h), single drugs and two-drug combinations; type: cell-based, Babesia divergens; details: for IC50: Babesia divergens, B. divergens, 96 h, triplicate, mean ± SD, read-out: IC50 on in vitro culture of parasites; for Selectivity index MDBK: ratio IC50 MDBK to IC50 B. divergens; for Selectivity index NIH/3T3: ratio IC50 NIH/3T3 to IC50 B. divergens
Experimental: as §2, §3, §4

B. caballi (USDA strain) = assay: as above; type: cell-based, Babesia caballi; details: for IC50: Babesia caballi, B. caballi, 96 h, triplicate, mean ± SD, read-out: IC50 on in vitro culture of parasites; for Selectivity index MDBK: ratio IC50 MDBK to IC50 B. caballi; for Selectivity index NIH/3T3: ratio IC50 NIH/3T3 to IC50 B. caballi
Experimental: as §2, §3, §4

[2] = test system: B. bigemina (Argentina strain); assay: as above; type: cell-based, Babesia bigemina; details: for IC50: Babesia bigemina, B. bigemina, 96 h, triplicate, mean ± SD, read-out: IC50 on in vitro culture of parasites; for Selectivity index MDBK: ratio IC50 MDBK to IC50 B. bigemina; for Selectivity index NIH/3T3: ratio IC50 NIH/3T3 to IC50 B. bigemina
Experimental: as §2, §3, §4

B. bovis (Texas strain) = assay: as above; type: cell-based, Babesia bovis; details: for IC50: Babesia bovis, in Bos taurus, B. bovis, 96 h, triplicate, mean ± SD, read-out: IC50 on in vitro culture of parasites; for Selectivity index MDBK: ratio IC50 MDBK to IC50 B. bovis; for Selectivity index NIH/3T3: ratio IC50 NIH/3T3 to IC50 B. bovis
Experimental: as §2, §3, §4

[3] = at a concentration of 40 μM, separate assay

| SMILES | IC50 (NIH/3T3 cells) [nM] | IC50 (T. equi (USDA strain)) [nM] | Selectivity index MDBK (T. equi (USDA strain)) | Selectivity index NIH/3T3 (T. equi (USDA strain)) | IC50 (MDBK cells) [nM] | IC50 [1] [nM] | Selectivity index MDBK [1] | Selectivity index NIH/3T3 [1] | IC50 (B. caballi (USDA strain)) [nM] | Selectivity index MDBK (B. caballi (USDA strain)) | Selectivity index NIH/3T3 (B. caballi (USDA strain)) | IC50 [2] [nM] | Selectivity index MDBK [2] | Selectivity index NIH/3T3 [2] | IC50 (B. bovis (Texas strain)) [nM] | Selectivity index MDBK (B. bovis (Texas strain)) | Selectivity index NIH/3T3 (B. bovis (Texas strain)) | inhibition on NIH/3T3 cell viability (NIH/3T3 cells; [3]) | inhibition on MDBK cell viability (MDBK cells; [3]) |
| --- | --- | --- | --- | --- | --- | --- | --- | --- | --- | --- | --- | --- | --- | --- | --- | --- | --- | --- | --- |
| CO[C@H]1/C=C\C=C(/C)C(=O)NC2=CC(=O)C(NCCN(C)C)=C(C[C@@H](C)C[C@H](OC)[C@H](O)[C@@H](C)/C=C(\C)[C@@H]1OC(N)=O)C2=O [17-DMAG, 17-dimethylaminoethylamino-17-demethoxygeldanamycin] | 15500 ± 4000 | 308 ± 7.2 | 29 | 50 | 8800 ± 2000 | 184 ± 3.2 | 48 | 84 | 88.5 ± 9.6 | 99 | 175 | 62.4 ± 1.9 | 141 | 248 | 77.6 ± 2.9 | 113 | 200 |  |  |
| O=C1C(O)=C([C@H]2CC[C@H](c3ccc(Cl)cc3)CC2)C(=O)c2ccccc21 [AV, atovaquone] | > 40000 | 95 ± 65 | >421 | >421 | > 40000 | 13.4 ± 1.4 | >2985 | >2985 | 102 ± 14.1 | >393 | >393 | 706 ± 38.7 | >57 | >57 | 39.7 ± 2.4 | >1008 | >1008 | did not show any inhibition | did not show any inhibition |

Reference: publication PMC6114103, “17-DMAG inhibits the multiplication of several Babesia species and Theileria equi on in vitro cultures, and Babesia microti in mice” (International Journal for Parasitology: Drugs and Drug …, 2018)
